Toxic doses and inconclusive results are not listed. Cut-off read from the data, not from the text of the source: active = T/C of 150% or more; inactive = T/C below 125%.
Tested on: L1210 leukemia ip in BDF1 mice, survival T/C
Test: NCI In Vivo Anticancer Drug Screen. Data for tumor model L1210 Leukemia (intraperitoneal) in B6D2F1 (BDF1) mice
Details: endpoint: mean survival time, higher = longer survival
Method in brief: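 Mice bearing the transplanted tumor received compound or vehicle. Survival of the treated group was divided by that of the vehicle-treated control group to give the ratio.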

[1] = dose: 50.0 mg/kg/injection, schedule: Q01DX001 (ip), vehicle: carboxymethylcellulose (CMC)
[2] = dose: 100.0 mg/kg/injection, schedule: Q01DX001 (ip), vehicle: carboxymethylcellulose (CMC)
[3] = dose: 200.0 mg/kg/injection, schedule: Q01DX001 (ip), vehicle: carboxymethylcellulose (CMC)
[4] = dose: 400.0 mg/kg/injection, schedule: Q01DX001 (ip), vehicle: carboxymethylcellulose (CMC)
[5] = dose: 100.0 mg/kg/injection, schedule: Q01DX009 (ip), vehicle: Klucel (hydroxypropylcellulose) (HPC)
[6] = dose: 200.0 mg/kg/injection, schedule: Q01DX009 (ip), vehicle: Klucel (hydroxypropylcellulose) (HPC)
[7] = dose: 400.0 mg/kg/injection, schedule: Q01DX009 (ip), vehicle: Klucel (hydroxypropylcellulose) (HPC)
[8] = dose: 100.0 mg/kg/injection, schedule: Q04DX003 (ip), vehicle: saline with Tween-80
[9] = dose: 100.0 mg/kg/injection, schedule: Q04DX003 (ip), vehicle: saline
[10] = dose: 200.0 mg/kg/injection, schedule: Q04DX003 (ip), vehicle: saline
[11] = dose: 400.0 mg/kg/injection, schedule: Q04DX003 (ip), vehicle: saline
[12] = dose: 200.0 mg/kg/injection, schedule: Q04DX003 (ip), vehicle: saline with Tween-80
[13] = dose: 400.0 mg/kg/injection, schedule: Q04DX003 (ip), vehicle: saline with Tween-80
[14] = dose: 100.0 mg/kg/injection, schedule: Q01DX001 (ip), vehicle: saline
[15] = dose: 200.0 mg/kg/injection, schedule: Q01DX001 (ip), vehicle: saline
[16] = dose: 400.0 mg/kg/injection, schedule: Q01DX001 (ip), vehicle: saline
[17] = dose: 100.0 mg/kg/injection, schedule: Q04DX002 (ip), vehicle: Klucel (hydroxypropylcellulose) (HPC)
[18] = dose: 200.0 mg/kg/injection, schedule: Q04DX002 (ip), vehicle: Klucel (hydroxypropylcellulose) (HPC)
[19] = dose: 400.0 mg/kg/injection, schedule: Q04DX002 (ip), vehicle: Klucel (hydroxypropylcellulose) (HPC)
[20] = dose: 100.0 mg/kg/injection, schedule: Q04DX003 (ip), vehicle: Klucel (hydroxypropylcellulose) (HPC)
[21] = dose: 200.0 mg/kg/injection, schedule: Q04DX003 (ip), vehicle: Klucel (hydroxypropylcellulose) (HPC)
[22] = dose: 400.0 mg/kg/injection, schedule: Q04DX003 (ip), vehicle: Klucel (hydroxypropylcellulose) (HPC)

Measured: T/C

O=C(Nc1cccc(Cl)c1)Nc1ccccc1C(F)(F)F
inactive: [1] 104 % of control | [2] 106 % of control | [3] 106 % of control | [4] 101 % of control

COc1ccc(C2(C=O)CN(C)CN2)cc1 (stereo not drawn)
inactive: dose: 100.0 mg/kg/injection, schedule: Q01DX001 (ip), vehicle: other 96 % of control | dose: 200.0 mg/kg/injection, schedule: Q01DX001 (ip), vehicle: other 107 % of control | dose: 400.0 mg/kg/injection, schedule: Q01DX001 (ip), vehicle: other 96 % of control

C(=Nc1ccccc1)c1ccccc1B1Oc2ccccc2O1
inactive: [5] 100 % of control | [6] 96 % of control | [7] 119 % of control

CCCCCCCCCCCCCCCCS(=O)(=O)N/N=C/c1ccc(NC(C)=O)cc1
inactive: [2] 98 % of control | [3] 95 % of control | [4] 103 % of control

COC1CC2C(C[CH]1[Hg][Cl])C2(Cl)Cl (stereo not drawn)
inactive: dose: 3.13 mg/kg/injection, schedule: Q01DX009 (ip), vehicle: saline with Tween-80 103 % of control | dose: 6.25 mg/kg/injection, schedule: Q01DX009 (ip), vehicle: saline with Tween-80 94 % of control | dose: 6.25 mg/kg/injection, schedule: Q04DX003 (ip), vehicle: saline with Tween-80 105 % of control | dose: 12.5 mg/kg/injection, schedule: Q01DX009 (ip), vehicle: saline with Tween-80 96 % of control | dose: 12.5 mg/kg/injection, schedule: Q04DX003 (ip), vehicle: saline with Tween-80 96 % of control

CCOc1cc2ccc3c4cc(OC)c(OC)cc4c[n+](C)c3c2cc1OCC
inactive: dose: 100.0 mg/kg/injection, schedule: Q04DX002 (ip), vehicle: saline with Tween-80 98 % of control

CC1CC(=O)C2CC(Cl)CCC2(C)C1C (stereo not drawn)
inactive: [8] 101 % of control | dose: 150.0 mg/kg/injection, schedule: Q01DX009 (ip), vehicle: Klucel (hydroxypropylcellulose) (HPC) 91 % of control | dose: 225.0 mg/kg/injection, schedule: Q01DX009 (ip), vehicle: Klucel (hydroxypropylcellulose) (HPC) 97 % of control

CC(=O)N1CCCC(=O)CCCCCCC1=O
inactive: dose: 50.0 mg/kg/injection, schedule: Q04DX003 (ip), vehicle: saline 95 % of control | [9] 103 % of control | [10] 88 % of control

c1ccc(-c2cc(-c3ccccc3)c(-c3ccccc3)o2)cc1
inactive: dose: 50.0 mg/kg/injection, schedule: Q01DX001 (ip), vehicle: Klucel (hydroxypropylcellulose) (HPC) 92 % of control | dose: 100.0 mg/kg/injection, schedule: Q01DX001 (ip), vehicle: Klucel (hydroxypropylcellulose) (HPC) 100 % of control | dose: 200.0 mg/kg/injection, schedule: Q01DX001 (ip), vehicle: Klucel (hydroxypropylcellulose) (HPC) 92 % of control

COc1cc(/C=N\N=C(/C)c2ccc(F)cc2)cc(OC)c1OC
inactive: [5] 87 % of control | [6] 86 % of control | [7] 89 % of control

CC1CCN(C(=S)[S-])CC1.CC1CCN(C(=S)[S-])CC1.[Zn]
inactive: dose: 12.5 mg/kg/injection, schedule: Q01DX009 (ip), vehicle: saline 111 % of control | dose: 25.0 mg/kg/injection, schedule: Q01DX009 (ip), vehicle: saline 107 % of control | dose: 50.0 mg/kg/injection, schedule: Q01DX009 (ip), vehicle: saline 100 % of control | [9] 103 % of control

O=C(SCc1ccccc1)C(O)c1ccccc1 (stereo not drawn)
inactive: [9] 94 % of control | [10] 100 % of control | [11] 97 % of control

O=c1cc(-c2ccccc2)oc2ccccc12
inactive: [5] 97 % of control | [6] 92 % of control | [7] 108 % of control

CC(=O)Nc1ccccc1-c1ccc([N+](=O)[O-])cc1
inactive: [8] 110 % of control | [12] 101 % of control | [13] 101 % of control

CC(=O)NCC(N)=S
inactive: [14] 102 % of control | [15] 102 % of control | [16] 98 % of control

CN(C)CCCNc1nc(-c2cc(C(F)(F)F)cc(C(F)(F)F)c2)nc(C(Cl)(Cl)Cl)n1
inactive: [17] 100 % of control | [18] 92 % of control | [19] 106 % of control

CCc1ccc(NC(=O)Nc2cccc(Cl)c2)cc1
inactive: [5] 92 % of control | [20] 102 % of control | [6] 89 % of control | [21] 102 % of control | [7] 99 % of control | [22] 98 % of control

Cc1ccc(S(=O)(=O)OCCOCCOc2ccc(C(C)(C)CC(C)(C)C)cc2)cc1
inactive: dose: 100.0 mg/kg/injection, schedule: Q01DX001 (ip), vehicle: acetone 97 % of control | [9] 98 % of control | dose: 200.0 mg/kg/injection, schedule: Q01DX001 (ip), vehicle: acetone 89 % of control | [10] 92 % of control | dose: 400.0 mg/kg/injection, schedule: Q01DX001 (ip), vehicle: acetone 87 % of control | [11] 91 % of control

Cc1c([N+](=O)[O-])cc(I)cc1[N+](=O)[O-]
inactive: [8] 106 % of control | [12] 108 % of control | [13] 103 % of control

CC(=O)OCC1OC(n2ccc(=O)[nH]c2=O)C(OC(C)=O)C1OC(C)=O (stereo not drawn)
inactive: [14] 100 % of control | [15] 103 % of control | [16] 106 % of control

COc1cc2c(c(OC)c1OC)-c1ccc(OC)c(=O)cc1C(=O)CC2
inactive: [1] 122 % of control

OCCc1nn[nH]n1
inactive: [9] 104 % of control | [10] 93 % of control | [11] 98 % of control

CCCCN(CCCC)CCNc1ccc(C)c2sc3ccccc3c(=O)c12
inactive: dose: 40.0 mg/kg/injection, schedule: Q01DX Z (ip), vehicle: carboxymethylcellulose (CMC) 104 % of control | dose: 600.0 mg/kg/injection, schedule: Q01DX Z (ip), vehicle: carboxymethylcellulose (CMC) 95 % of control

CC1(C)NC(=O)C(/C=C/c2ccccc2)O1 (stereo not drawn)
inactive: dose: 25.0 mg/kg/injection, schedule: Q01DX009 (ip), vehicle: Klucel (hydroxypropylcellulose) (HPC) 102 % of control | dose: 25.0 mg/kg/injection, schedule: Q04DX003 (ip), vehicle: Klucel (hydroxypropylcellulose) (HPC) 97 % of control | dose: 50.0 mg/kg/injection, schedule: Q01DX009 (ip), vehicle: Klucel (hydroxypropylcellulose) (HPC) 100 % of control | dose: 50.0 mg/kg/injection, schedule: Q04DX003 (ip), vehicle: Klucel (hydroxypropylcellulose) (HPC) 95 % of control | [5] 89 % of control | [20] 97 % of control | [21] 92 % of control | [22] 101 % of control

O=C1C(c2ccccc2)CS(=O)(=O)CC1c1ccccc1 (stereo not drawn)
inactive: dose: 50.0 mg/kg/injection, schedule: Q04DX002 (ip), vehicle: Klucel (hydroxypropylcellulose) (HPC) 101 % of control | [17] 99 % of control | [18] 96 % of control

O=C(c1ccc(Cl)cc1)c1nc2ccccc2[nH]1
inactive: [17] 95 % of control | [18] 95 % of control | [19] 103 % of control

Source: PubChem BioAssay AID248 (DTP/NCI, 2004)
